Measurements as given in patent publication US20220213060A1, “Crystal Form of Quinazolinone Compound and Preparation Method Therefor” (Luoxin Healthcare Science and Technology Development …, priority 2019, published 2022).
Like-named read-outs stand apart in the source and are kept apart here.

Tests used:
[1] = target: T1, PI3Kγ (Homo sapiens, UniProt P48736); assay: In vitro enzymatic activity test (ADP-Glo lipid kinase), PI3Kγ; assay type: biochemical; conditions: inhibitory activity against PI3Kα relative to PI3Kγ
T1 construct: purchased Millipore 14-558-K
T1 sequence (P48736 whole entry): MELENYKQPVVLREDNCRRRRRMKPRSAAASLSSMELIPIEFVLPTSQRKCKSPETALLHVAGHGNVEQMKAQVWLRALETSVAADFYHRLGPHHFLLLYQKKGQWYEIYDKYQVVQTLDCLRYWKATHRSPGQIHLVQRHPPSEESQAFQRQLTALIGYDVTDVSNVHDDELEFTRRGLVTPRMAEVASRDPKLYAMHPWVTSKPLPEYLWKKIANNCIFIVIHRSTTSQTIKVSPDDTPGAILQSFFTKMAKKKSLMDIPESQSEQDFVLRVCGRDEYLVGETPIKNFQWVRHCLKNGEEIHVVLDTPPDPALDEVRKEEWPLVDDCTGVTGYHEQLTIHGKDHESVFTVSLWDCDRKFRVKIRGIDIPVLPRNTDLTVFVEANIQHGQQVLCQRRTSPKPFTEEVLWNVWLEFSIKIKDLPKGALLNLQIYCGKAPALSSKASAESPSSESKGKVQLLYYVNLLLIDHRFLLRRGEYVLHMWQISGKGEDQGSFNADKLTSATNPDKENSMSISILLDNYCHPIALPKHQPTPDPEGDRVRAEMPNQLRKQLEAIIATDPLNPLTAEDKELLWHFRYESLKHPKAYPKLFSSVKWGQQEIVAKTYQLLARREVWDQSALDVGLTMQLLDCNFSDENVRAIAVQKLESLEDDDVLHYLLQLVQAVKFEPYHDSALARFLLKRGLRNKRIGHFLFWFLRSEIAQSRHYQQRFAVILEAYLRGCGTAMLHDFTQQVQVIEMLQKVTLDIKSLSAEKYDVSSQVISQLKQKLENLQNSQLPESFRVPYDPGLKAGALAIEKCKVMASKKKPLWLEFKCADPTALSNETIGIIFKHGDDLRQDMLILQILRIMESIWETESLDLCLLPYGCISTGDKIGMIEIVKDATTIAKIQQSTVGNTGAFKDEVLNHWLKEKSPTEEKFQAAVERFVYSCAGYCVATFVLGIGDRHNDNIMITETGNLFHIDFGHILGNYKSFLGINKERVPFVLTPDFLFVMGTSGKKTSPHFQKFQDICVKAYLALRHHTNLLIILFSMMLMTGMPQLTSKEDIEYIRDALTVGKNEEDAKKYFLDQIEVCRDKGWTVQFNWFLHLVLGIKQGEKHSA
Method: (§1) The lipid kinase reaction was carried out in a suitable substrate and under ATP conditions, then the activity of the kinase was detected by ADP-Glo™ kit in two steps. Step 1: the kinase reaction was terminated, in which the residual ATP was completely removed and only ADP was retained; step 2: kinase detection reagent was added to convert ADP to ATP, accompanied by fluorescein/luciferase reaction. Finally, the fluorescence value output was converted into kinase activity.
(§2) Experimental Materials and Equipment:
(§3) 2) Kit: ADP-Glo™ lipid kinase and PIP2:3PS kit (Promega #V1792)
(§4) The reagent kit contains: 1 mM PIP2:3PS, 10× lipid dilution buffer, 1 M magnesium chloride, 10 mM ATP, 10 mM ADP, ADP-Glo reagent, detection buffer and detection substrate.
(§5) 3) Reaction plate: OptiPlate-384, white and transparent (PerkinElmer #6007299)
(§6) 1) 10× reaction buffer: 500 mM HEPES, pH 7.5, 500 mM NaCl, […]; BSA: 10% stock solution, self-made
(§7) 2) Final test system conditions: 1× reaction system: 50 mM of HEPES, 50 mM of NaCl, 3 mM of MgCl2, 0.01% BSA (freshly prepared on the day of experiment), 1% DMSO (v/v)+/−compound
(§8) 3) Reaction system: 3 μL of mixture of enzyme and substrate (1:1)+2 μL of ATP/MgCl2 mixture+5 μL of ADP-Glo reagent+10 μL of detection reagent.
(§9) The specific experimental operations were as follows: […]
(§10) (16) Fluorescence values were measured on the Envision instrument.

[2] = Sprague Dawley (SD) rat absorption test (pharmacokinetics); assay type: in vivo, SD rats; conditions: for C0 / Tmax / bioavailability / Tmax at 7 days / Vd / AUC(0-t) / clearance / half-life / Cmax / half-life at 7 days: Sprague-Dawley, rat, plasma; for AUC0-last / t1/2: listed as crystal form A of the compound represented by formula (I); for Vd: read-out: Vdss
Method: SD rats were given the crystal form A of the compound represented by formula (I) by single or multiple oral gavage and single intravenous injection respectively, with 6 rats in each group, half male and half female. According to the results of pharmacodynamic and toxicological experiments, the single oral gavage doses were 3, 10 and 30 mg/kg respectively; the multiple doses were 10 mg/kg, once a day for 7 consecutive days; the single intravenous dose was 1 mg/kg. According to the drug plasma concentration-time curve, the pharmacokinetic parameters were calculated. In this experiment, SD rats were provided by Beijing Vital River Experimental Animal Technology Co., Ltd., and were divided into 4 groups (3/sex/group) according to their similar weight. The vehicle for the intravenous group was 5% HP-betaCD/5% Solutol aqueous solution (pH=8); the vehicle for the oral group was 0.5% MC/0.2% Tw80 aqueous solution. Plasma samples were collected by jugular vein puncture in rats.

[3] = target: T2, PI3Kβ (Homo sapiens, UniProt P42338); assay: In vitro enzymatic activity test (ADP-Glo lipid kinase), PI3Kβ; assay type: biochemical; conditions: inhibitory activity against PI3Kα relative to PI3Kβ
T2 construct: purchased Promega V1751
T2 sequence (P42338 whole entry): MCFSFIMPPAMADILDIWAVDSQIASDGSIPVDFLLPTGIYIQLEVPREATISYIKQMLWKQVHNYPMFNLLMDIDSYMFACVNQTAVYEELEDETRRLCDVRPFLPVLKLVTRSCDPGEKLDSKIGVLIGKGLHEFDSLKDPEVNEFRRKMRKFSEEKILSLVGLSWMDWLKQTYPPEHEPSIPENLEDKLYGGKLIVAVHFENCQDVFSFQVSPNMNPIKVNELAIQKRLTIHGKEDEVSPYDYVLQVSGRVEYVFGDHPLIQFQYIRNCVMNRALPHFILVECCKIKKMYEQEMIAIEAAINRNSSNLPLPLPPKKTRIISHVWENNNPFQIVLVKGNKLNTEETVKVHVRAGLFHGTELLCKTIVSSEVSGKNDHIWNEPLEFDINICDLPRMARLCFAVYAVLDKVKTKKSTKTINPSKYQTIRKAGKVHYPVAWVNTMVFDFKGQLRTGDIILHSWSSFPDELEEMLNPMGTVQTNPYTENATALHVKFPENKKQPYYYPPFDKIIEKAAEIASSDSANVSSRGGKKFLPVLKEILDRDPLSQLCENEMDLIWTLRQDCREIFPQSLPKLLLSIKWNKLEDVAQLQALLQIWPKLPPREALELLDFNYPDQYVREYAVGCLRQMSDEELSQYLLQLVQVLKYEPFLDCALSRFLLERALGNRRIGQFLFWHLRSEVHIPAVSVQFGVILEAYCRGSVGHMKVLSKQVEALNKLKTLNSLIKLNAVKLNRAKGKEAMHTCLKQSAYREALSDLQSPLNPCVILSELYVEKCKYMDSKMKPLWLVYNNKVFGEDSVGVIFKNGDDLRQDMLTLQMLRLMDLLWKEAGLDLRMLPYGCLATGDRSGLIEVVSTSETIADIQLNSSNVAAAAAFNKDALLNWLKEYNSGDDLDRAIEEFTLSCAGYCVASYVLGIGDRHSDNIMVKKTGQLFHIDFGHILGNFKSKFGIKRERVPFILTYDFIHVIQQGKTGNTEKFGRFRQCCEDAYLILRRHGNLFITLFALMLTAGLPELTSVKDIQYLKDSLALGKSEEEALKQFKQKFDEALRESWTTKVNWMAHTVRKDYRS
T2 sequence (P27986 whole entry partner): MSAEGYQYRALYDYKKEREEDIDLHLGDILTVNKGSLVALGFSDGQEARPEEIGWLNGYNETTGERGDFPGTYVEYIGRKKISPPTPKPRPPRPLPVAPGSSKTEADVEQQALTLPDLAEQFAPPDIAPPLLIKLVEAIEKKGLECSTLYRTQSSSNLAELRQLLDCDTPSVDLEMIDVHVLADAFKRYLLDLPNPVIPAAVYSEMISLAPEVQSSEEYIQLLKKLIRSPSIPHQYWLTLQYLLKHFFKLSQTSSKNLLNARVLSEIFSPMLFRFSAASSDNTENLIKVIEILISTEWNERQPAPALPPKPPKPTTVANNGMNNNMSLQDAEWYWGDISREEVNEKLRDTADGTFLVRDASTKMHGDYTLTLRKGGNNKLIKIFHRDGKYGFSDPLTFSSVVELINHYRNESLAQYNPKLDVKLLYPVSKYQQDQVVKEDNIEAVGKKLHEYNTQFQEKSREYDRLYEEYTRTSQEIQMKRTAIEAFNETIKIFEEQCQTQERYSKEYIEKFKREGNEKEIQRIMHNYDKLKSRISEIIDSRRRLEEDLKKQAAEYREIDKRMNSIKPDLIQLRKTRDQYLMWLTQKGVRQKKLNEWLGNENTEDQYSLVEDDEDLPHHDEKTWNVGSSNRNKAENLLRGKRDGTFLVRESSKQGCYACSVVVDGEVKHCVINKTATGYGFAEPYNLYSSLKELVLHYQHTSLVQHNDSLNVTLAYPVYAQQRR
Method: as §1, §2, §3, §4, §5, §6, §7, §8, §9, §10

[4] = test system: MDA-MB-468; assay: Akt phosphorylation inhibition in MDA-MB-468 cells (high expression of PI3Kβ); assay type: cell-based; conditions: MDA-MB-468 cell line with high expression of PI3Kβ
[5] = female SD rats, oral, 3 mg/kg, single
[6] = male SD rats, oral, 3 mg/kg, single
[7] = female SD rats, vein, 1 mg/kg, single
[8] = female, iv, 1 mg/kg, female SD rats, vein, single
[9] = female, po, 3 mg/kg, female SD rats, single
[10] = female, po, 10 mg/kg, female SD rats, oral, 10 mg/kg once a day, Day 7
[11] = female, po, 10 mg/kg, female SD rats, oral, 10 mg/kg, Day 1
[12] = female, po, 30 mg/kg, female SD rats, single
[13] = male SD rats, vein, 1 mg/kg, single
[14] = male, iv, 1 mg/kg, male SD rats, vein, single
[15] = male, po, 3 mg/kg, male SD rats, single
[16] = male, po, 10 mg/kg, male SD rats, oral, 10 mg/kg once a day, Day 7
[17] = male, po, 10 mg/kg, male SD rats, oral, 10 mg/kg, Day 1
[18] = male, po, 30 mg/kg, male SD rats, single

## CNC(=O)[C@H](C)Cn1cnc2ccc(-c3cnc(OC)c(NS(=O)(=O)c4ccc(F)cc4F)c3)cc2c1=O
[1]
  Selectivity PI3Kα/γ (kinase): 6.61 times
[2]; iv, female SD rats, vein, 1 mg/kg, single
  C0: 14.2 µM
[2]; iv, male SD rats, vein, 1 mg/kg, single
  C0: 12.7 µM
[2]; [5]
  Tmax: 0.5 h
  bioavailability: 53.1%
[2]; female SD rats, oral, 10 mg/kg once a day, Day 7
  Tmax at 7 days: 0.5 h
[2]; female SD rats, oral, 10 mg/kg, Day 1
  Tmax: 0.667 ± 0.289 h
[2]; female SD rats, oral, 30 mg/kg, single
  Tmax: 0.5 h
[2]; [6]
  Tmax: 0.417 ± 0.144 h
  bioavailability: 34.7%
[2]; male SD rats, oral, 10 mg/kg once a day, Day 7
  Tmax at 7 days: 0.667 h
[2]; male SD rats, oral, 10 mg/kg, Day 1
  Tmax: 0.5 h
[2]; male SD rats, oral, 30 mg/kg, single
  Tmax: 0.667 ± 0.289 h
[2]; [7]
  AUC0-last: 17.4 µM·h
  t1/2: 3.26 h
[2]; female, iv, 1 mg/kg, female SD rats, vein, 1 mg/kg, single
  Vd: 0.257 ± 0.0227 L/kg
[2]; [8]
  AUC(0-t): 9.89 ± 1.41 µM·h
  clearance: 3.12 ± 0.431 mL/min/kg
  half-life: 1.63 ± 0.809 h
[2]; [9]
  AUC(0-t): 27.7 ± 8.72 µM·h
  Cmax: 6.39 ± 1.71 µM
  half-life: 2.71 h
[2]; [10]
  AUC(0-t): 86 ± 19.9 µM·h
  Cmax: 20.5 ± 4.6 µM
  half-life at 7 days: 3.74 h
[2]; [11]
  AUC(0-t): 60.9 ± 10.9 µM·h
  Cmax: 12.1 ± 3.69 µM
  half-life: 2.92 h
[2]; [12]
  AUC(0-t): 177 ± 48 µM·h
  Cmax: 39.1 µM
  half-life: 2.72 h
[2]; [13]
  AUC0-last: 9.89 µM·h
  t1/2: 1.63 h
[2]; male, iv, 1 mg/kg, male SD rats, vein, 1 mg/kg, single
  Vd: 0.265 ± 0.05 L/kg
[2]; [14]
  AUC(0-t): 17.4 ± 4.79 µM·h
  clearance: 1.79 ± 0.457 mL/min/kg
  half-life: 3.26 ± 1.13 h
[2]; [15]
  AUC(0-t): 10.3 ± 4.6 µM·h
  Cmax: 4.77 ± 1.01 µM
  half-life: 2.26 h
[2]; [16]
  AUC(0-t): 48.5 ± 4.64 µM·h
  Cmax: 13.9 ± 1.61 µM
  half-life at 7 days: 3.95 h
[2]; [17]
  AUC(0-t): 23.7 ± 0.721 µM·h
  Cmax: 6.8 ± 0.583 µM
  half-life: 2.49 h
[2]; [18]
  AUC(0-t): 45.3 ± 10.9 µM·h
  Cmax: 14.5 ± 4.73 µM
  half-life: 2.61 h
[3]
  Selectivity PI3Kα/β (kinase): 149 times
[4]
  Selectivity PI3Kα over PI3Kβ, Akt phosphorylation inhibitory activity in cells: 195 times
